Legend:
Type in all cases: in vivo
[1] = system: Italian ryegrass (Lolium multiflorum); assay: Test A preemergence, visual plant response rating; settings: 125 g ai/ha, preemergence; 0 to 100 scale, 0 no effect, 100 complete control
Description: (§1) Seeds of plant species selected from barnyardgrass (Echinochloa crus-galli), kochia (Kochia scoparia), ragweed (common ragweed, Ambrosia elatior), Italian ryegrass (Lolium multiflorum), foxtail, giant (giant foxtail, Setaria faberii), foxtail, green (green foxtail, Setaria viridis), and pigweed (Amaranthus retroflexus) were planted into a blend of loam soil and sand and treated preemergence with a directed soil spray using test chemicals formulated in a non-phytotoxic solvent mixture which included a surfactant.
(§2) At the same time, plants selected from these weed species and also wheat (Triticum aestivum), corn (Zea mays), blackgrass (Alopecurus myosuroides), and galium (catchweed bedstraw, Galium aparine) were planted in pots containing the same blend of loam soil and sand and treated with postemergence applications of test chemicals formulated in the same manner. Plants ranged in height from 2 to 10 cm and were in the one- to two-leaf stage for the postemergence treatment. Treated plants and untreated controls were maintained in a greenhouse for approximately 10 days, after which time all treated plants were compared to untreated controls and visually evaluated for injury. Plant response ratings, summarized in Table A, are based on a 0 to 100 scale where 0 is no effect and 100 is complete control. A dash (-) response means no test result.

[2] = system: barnyardgrass (Echinochloa crus-galli); assay: Test A preemergence, visual plant response rating; settings: 125 g ai/ha, preemergence; 0 to 100 scale, 0 no effect, 100 complete control
Description: as §1, §2

[3] = system: foxtail, giant (giant foxtail, Setaria faberii); assay: Test A preemergence, visual plant response rating; settings: 125 g ai/ha, preemergence; 0 to 100 scale, 0 no effect, 100 complete control
Description: as §1, §2

kochia (Kochia scoparia) [4] = assay: Test A preemergence, visual plant response rating; settings: 125 g ai/ha, preemergence; 0 to 100 scale, 0 no effect, 100 complete control
Description: as §1, §2

[5] = system: pigweed (Amaranthus retroflexus); assay: Test A preemergence, visual plant response rating; settings: 125 g ai/ha, preemergence; 0 to 100 scale, 0 no effect, 100 complete control
Description: as §1, §2

[6] = system: ragweed (common ragweed, Ambrosia elatior); assay: Test A preemergence, visual plant response rating; settings: 125 g ai/ha, preemergence; 0 to 100 scale, 0 no effect, 100 complete control
Description: as §1, §2

[7] = system: Italian ryegrass (Lolium multiflorum); assay: Test A postemergence, visual plant response rating; settings: Postemergence, 125 g ai/ha; 0 to 100 scale (0 no effect, 100 complete control)
Description: as §1, §2

[8] = system: barnyardgrass (Echinochloa crus-galli); assay: Test A postemergence, visual plant response rating; settings: Postemergence, 125 g ai/ha; 0 to 100 scale (0 no effect, 100 complete control)
Description: as §1, §2

[9] = system: blackgrass (Alopecurus myosuroides); assay: Test A postemergence, visual plant response rating; settings: Postemergence, 125 g ai/ha; 0 to 100 scale (0 no effect, 100 complete control)
Description: as §1, §2

corn (Zea mays) = assay: Test A postemergence, visual plant response rating; settings: Postemergence, 125 g ai/ha; 0 to 100 scale (0 no effect, 100 complete control)
Description: as §1, §2

[10] = system: foxtail, giant (giant foxtail, Setaria faberii); assay: Test A postemergence, visual plant response rating; settings: Postemergence, 125 g ai/ha; 0 to 100 scale (0 no effect, 100 complete control)
Description: as §1, §2

[11] = system: galium (catchweed bedstraw, Galium aparine); assay: Test A postemergence, visual plant response rating; settings: Postemergence, 125 g ai/ha; 0 to 100 scale (0 no effect, 100 complete control)
Description: as §1, §2

kochia (Kochia scoparia) [12] = assay: Test A postemergence, visual plant response rating; settings: Postemergence, 125 g ai/ha; 0 to 100 scale (0 no effect, 100 complete control)
Description: as §1, §2

[13] = system: pigweed (Amaranthus retroflexus); assay: Test A postemergence, visual plant response rating; settings: Postemergence, 125 g ai/ha; 0 to 100 scale (0 no effect, 100 complete control)
Description: as §1, §2

[14] = system: ragweed (common ragweed, Ambrosia elatior); assay: Test A postemergence, visual plant response rating; settings: Postemergence, 125 g ai/ha; 0 to 100 scale (0 no effect, 100 complete control)
Description: as §1, §2

[15] = system: wheat (Triticum aestivum); assay: Test A postemergence, visual plant response rating; settings: Postemergence, 125 g ai/ha; 0 to 100 scale (0 no effect, 100 complete control)
Description: as §1, §2

CO/N=C(\c1cc(C(F)(F)F)ccc1Cl)c1c(O)c(C)nn(C)c1=O [Compound 54]
Ryegrass, Italian plant response rating [1]: 70 | Barnyardgrass plant response rating [2]: 40 | Foxtail, Giant plant response rating [3]: 40 | Kochia plant response rating (kochia (Kochia scoparia) [4]): 0 | Pigweed plant response rating [5]: 80 | Ragweed plant response rating [6]: 70 | Ryegrass, Italian plant response rating [7]: 40 | Barnyardgrass plant response rating [8]: 30 | Blackgrass plant response rating [9]: 40 | Corn plant response rating (corn (Zea mays)): 10 | Foxtail, Giant plant response rating [10]: 40 | Galium plant response rating [11]: 70 | Kochia plant response rating (kochia (Kochia scoparia) [12]): 50 | Pigweed plant response rating [13]: 60 | Ragweed plant response rating [14]: 60 | Wheat plant response rating [15]: 30

Source: patent US20210045385A1, “PYRIDAZINONE-SUBSTITUTED KETOXIMES AS HERBICIDES” (FMC Corporation, priority 2018, published 2021)
